In US9447028B2, “Therapeutic aryl-amido-aryl compounds and their use” (King's College London, priority 2009, dated 2016):

Key:
Format in all cases: cell-based
RARα = molecular target: T1, RARα (Homo sapiens, UniProt P10276); experiment: Transactivation assay for RAR alpha (gal4-RAR fusion, luciferase reporter, COS-7 cells); settings: for RARα/RARβ ratio (*): fold-selectivity for RARα over RARβ; for RARα activity ratio: ratio of test compound EC50 to that of atRA on the same plate; for Improvement (RARα activity ratio) / Improvement (RARα/RARβ ratio): compared with XXX-03
T1 construct: gal4 (fusion partner); expressed in transfected cells; host or cells: COS-7
T1 sequence (P10276 183-417 limits assumed): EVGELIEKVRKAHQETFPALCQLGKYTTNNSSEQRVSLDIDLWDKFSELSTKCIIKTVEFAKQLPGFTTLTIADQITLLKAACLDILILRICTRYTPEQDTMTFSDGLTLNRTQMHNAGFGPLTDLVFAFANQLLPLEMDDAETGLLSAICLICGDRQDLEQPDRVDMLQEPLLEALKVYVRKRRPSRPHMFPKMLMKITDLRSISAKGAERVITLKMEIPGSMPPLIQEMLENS
Protocol: (§1) Transcriptional transactivation assays were performed with gal4 fusion receptor constructs, created using each of the RAR ligand binding domains, co-transfected with the pFR-luc (Stratagene™) reporter construct in COS-7 cells.
(§2) Briefly, on day 1, 96 well plates were seeded with 8000 cells per well then left to recover overnight. On day 2, the cells were co-transfected with 100 ng of reporter plasmid and 10 ng of the appropriate receptor plasmid per well using lipofectamine (Invitrogen™). On day 3, the lipofectamine containing media was replaced by a DMEM without phenol red, followed by the addition of test compound dissolved in 1 μL of DMSO to each well's 100 μL total volume. Finally, on day 4, the cells were lysed and their luciferase substrate was provided by the BrightGlo™ reagent (Promega™), the plates were then read on the MicroBeta TriLux™ (Perkin Elmer™).
(§3) Where replicate data has been generated, the data are quoted as a ratio of the mean EC50 from the separate experiments.

RARβ = molecular target: T2, RARβ (Homo sapiens, UniProt P10826); experiment: Transactivation assay for RAR beta (gal4-RAR fusion, luciferase reporter, COS-7 cells); settings: ratio of test compound EC50 to that of atRA; inactive = no agonist action at the highest concentration tested
T2 construct: gal4 (fusion partner); expressed in transfected cells; host or cells: COS-7
T2 sequence (P10826 183-417 limits assumed): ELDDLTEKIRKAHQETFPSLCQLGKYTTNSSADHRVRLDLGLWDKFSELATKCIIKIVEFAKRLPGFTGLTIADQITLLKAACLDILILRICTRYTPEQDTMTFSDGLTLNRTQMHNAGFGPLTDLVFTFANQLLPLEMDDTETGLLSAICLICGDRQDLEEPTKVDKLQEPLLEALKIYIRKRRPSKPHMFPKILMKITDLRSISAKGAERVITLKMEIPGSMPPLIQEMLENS
Protocol: as §1, §2, §3

RARγ = molecular target: T3, RARγ (Homo sapiens, UniProt P13631); experiment: Transactivation assay for RAR gamma (gal4-RAR fusion, luciferase reporter, COS-7 cells); settings: ratio of test compound EC50 to that of atRA; inactive = no agonist action at the highest concentration tested
T3 construct: gal4 (fusion partner); expressed in transfected cells; host or cells: COS-7
T3 sequence (P13631 185-419 limits assumed): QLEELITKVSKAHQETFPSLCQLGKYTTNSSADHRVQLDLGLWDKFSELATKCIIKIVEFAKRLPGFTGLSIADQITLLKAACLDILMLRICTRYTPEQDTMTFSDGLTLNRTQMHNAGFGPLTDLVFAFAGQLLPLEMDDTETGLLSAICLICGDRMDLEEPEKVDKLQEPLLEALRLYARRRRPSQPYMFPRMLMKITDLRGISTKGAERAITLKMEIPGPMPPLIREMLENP
Protocol: as §1, §2, §3

For `COC(=O)c1ccc(NC(=O)c2cc(Cl)c(OC3CCCC3)c(Cl)c2)cc1` [AAA-002, Methyl 4-(3,5-dichloro-4-(cyclopentyloxy)benzamido)benzoate], the “RARα/RARβ ratio (*)” value (RARα) was 58.0, the RARα activity ratio (RARα) was 50 and the RARβ activity ratio (RARβ) was 2900. For the same compound, the RARγ activity ratio (RARγ) was “inactive”.

For `CCCOc1c(Cl)cc(C(=O)Nc2ccc(C(=O)O)cc2)cc1Cl` [AAA-003, 4-(3,5-Dichloro-4-propoxybenzamido)benzoic acid], the “Improvement (RARα activity ratio)” value (RARα) was ~6.0-fold, the “Improvement (RARα/RARβ ratio)” value (RARα) was ~1.3-fold and the “RARα/RARβ ratio (*)” value (RARα) was 9.3. It also gave an RARβ activity ratio (RARβ) of 139 and an RARγ activity ratio (RARγ) of 1200.

With `CC(C)Oc1c(Cl)cc(C(=O)Nc2ccc(C(=O)O)cc2)cc1Cl` [AAA-004, 4-(3,5-Dichloro-4-isopropoxybenzamido)benzoic acid] the “Improvement (RARα activity ratio)” value (RARα) was ~13-fold, the “Improvement (RARα/RARβ ratio)” value (RARα) was ~29-fold and the RARβ activity ratio (RARβ) was 1420. The RARγ activity ratio (RARγ) was 820.

With `O=C(O)c1ccc(NC(=O)c2cc(Cl)c(OCc3ccccc3)c(Cl)c2)cc1` [AAA-005, 4-(4-(Benzyloxy)-3,5-dichlorobenzamido)benzoic acid] the “Improvement (RARα activity ratio)” value (RARα) was ~1.3-fold, the “Improvement (RARα/RARβ ratio)” value (RARα) was ~7.4-fold and the RARβ activity ratio (RARβ) was 3570. The RARγ activity ratio (RARγ) was 3770.

With `COc1cc(C(=O)Nc2ccc(C(=O)O)cc2)cc(Cl)c1OC1CCCC1` [AAA-006, 4-(3-Chloro-4-(cyclopentyloxy)-5-methoxybenzamido)benzoic acid] the RARβ activity ratio (RARβ) was 1054 and the RARγ activity ratio (RARγ) was 5840.

In the case of `CCOc1c(Cl)cc(C(=O)Nc2ccc(C(=O)O)c(F)c2)cc1Cl` [AAA-007, 4-(3,5-Dichloro-4-ethoxybenzamido)-2-fluorobenzoic acid], the RARβ activity ratio (RARβ) was 2010 and the RARγ activity ratio (RARγ) was “inactive”.

Compound `CCOc1cc(C(=O)Nc2ccc(C(=O)O)cc2)cc(OC(C)C)c1OCC` [AAA-009, 4-(3,4-Diethoxy-5-isopropoxybenzamido)benzoic acid] has an RARβ activity ratio (RARβ) of 2450 and an RARγ activity ratio (RARγ) of 960.

In the case of `O=C(O)c1ccc(NC(=O)c2cc(Cl)c(OCC3CC3)c(Cl)c2)cc1` [AAA-010, 4-(3,5-Dichloro-4-(cyclopropylmethoxy)benzamido)benzoic acid], the “Improvement (RARα activity ratio)” value (RARα) was ~0.9-fold, the “Improvement (RARα/RARβ ratio)” value (RARα) was ~3.5-fold and the RARβ activity ratio (RARβ) was 2530. The RARγ activity ratio (RARγ) was “inactive”.

`O=C(O)c1ccc(NC(=O)c2cc(Cl)c(OC3CCC3)c(Cl)c2)cc1` [AAA-011, 4-(3,5-Dichloro-4-cyclobutoxybenzamido)benzoic acid] was tested, and the “Improvement (RARα activity ratio)” value (RARα) was ~2.6-fold, the “Improvement (RARα/RARβ ratio)” value (RARα) was ~12-fold and the RARβ activity ratio (RARβ) was 2960. For the same compound, the RARγ activity ratio (RARγ) was 21800.

`O=C(O)c1ccc(NC(=O)c2cc(Cl)c(OCc3ccncc3)c(Cl)c2)cc1` [AAA-012, 4-(3,5-Dichloro-4-(pyridin-4-ylmethoxy)benzamido)benzoic acid] was tested, and the “RARα/RARβ ratio (*)” value (RARα) was 2.4, the RARα activity ratio (RARα) was 533 and the RARβ activity ratio (RARβ) was 1300. The RARγ activity ratio (RARγ) was “inactive”.

For `CCOc1c(Cl)cc(NC(=O)c2ccc(C(=O)O)cc2)cc1Cl` [AAA-013, 4-(3,5-Dichloro-4-ethoxyphenylcarbamoyl)benzoic acid], the “RARα/RARβ ratio (*)” value (RARα) was 11.8, the RARα activity ratio (RARα) was 30 and the RARβ activity ratio (RARβ) was 355. The RARγ activity ratio (RARγ) was “inactive”.

With `CCOc1c(Br)cc(NC(=O)c2ccc(C(=O)O)cc2)cc1Br` [AAA-014, 4-(3,5-Dibromo-4-ethoxyphenylcarbamoyl)benzoic acid] the “RARα/RARβ ratio (*)” value (RARα) was 23.3, the RARα activity ratio (RARα) was 58 and the RARβ activity ratio (RARβ) was 1350. The RARγ activity ratio (RARγ) was “inactive”.

`CCOc1c(C(F)(F)F)cc(NC(=O)c2ccc(C(=O)O)cc2)cc1C(F)(F)F` [AAA-015, 4-(4-Ethoxy-3,5-bis(trifluoromethyl)phenylcarbamoyl)benzoic acid] was tested, and the RARβ activity ratio (RARβ) was 540 and the RARγ activity ratio (RARγ) was “inactive”.

`CCOc1c(Cl)cc(C(=O)Nc2ccc(C(N)=O)cc2)cc1Cl` [AAA-016, N-(4-Carbamoylphenyl)-3,5-dichloro-4-ethoxybenzamide] showed an RARα activity ratio (RARα) of 500.

In the case of `CCOc1c(Cl)cc(C(=O)Nc2ccc(C(=O)OC)c(Cl)c2)cc1Cl` [AAA-017, Methyl 4-(3,5-dichloro-4-ethoxybenzamido)-2-chlorobenzoate], the “RARα/RARβ ratio (*)” value (RARα) was greater than 500, the RARα activity ratio (RARα) was 140 and the RARβ activity ratio (RARβ) was “inactive”.

With `CCOc1c(Cl)cc(C(=O)Nc2ccc(C(=O)O)c(Cl)c2)cc1Cl` [AAA-018, 2-Chloro-4-(3,5-dichloro-4-ethoxybenzamido)benzoic acid] the “RARα/RARβ ratio (*)” value (RARα) was 64.0, the RARα activity ratio (RARα) was 151 and the RARβ activity ratio (RARβ) was 9660. The RARγ activity ratio (RARγ) was “inactive”.

For `CCOc1c(Cl)cc(C(=O)Nc2ccc(C(=O)O)c(C)c2)cc1Cl` [AAA-019, 4-(3,5-Dichloro-4-ethoxybenzamido)-2-methylbenzoic acid], the “Improvement (RARα activity ratio)” value (RARα) was ~100-fold, the “Improvement (RARα/RARβ ratio)” value (RARα) was ~12-fold and the RARβ activity ratio (RARβ) was 74. It also gave an RARγ activity ratio (RARγ) of 136.

With `CCOc1c(Cl)cc(NC(=O)c2ccc(C(=O)O)cn2)cc1Cl` [AAA-020, 6-(3,5-Dichloro-4-ethoxyphenylcarbamoyl)nicotinic acid] the “RARα/RARβ ratio (*)” value (RARα) was 2.0, the RARα activity ratio (RARα) was 108 and the RARβ activity ratio (RARβ) was 214. The RARγ activity ratio (RARγ) was “inactive”.

For `CCOc1c(F)cc(NC(=O)c2ccc(C(=O)O)cc2)cc1F` [AAA-021, 4-(4-Ethoxy-3,5-difluorophenylcarbamoyl)benzoic acid], the RARα activity ratio (RARα) was 760.

`CCOc1c(Cl)cc(C(=O)Nc2cc(F)c(C(=O)O)c(F)c2)cc1C(F)(F)F` [AAA-022, 4-(3-Chloro-4-ethoxy-5-(trifluoromethyl)benzamido)-2,6-difluorobenzoic acid] was tested, and the “increase in RARα activity” value (RARα; compared with XXX-02) was 5 fold, the “RARα/RARβ ratio (*)” value (RARα) was greater than 50 and the RARα activity ratio (RARα) was 448. For the same compound, the RARβ activity ratio (RARβ) was “inactive” and the RARγ activity ratio (RARγ) was “inactive”.

`CCOc1c(Br)cc(C(=O)Nc2ccc(C(=O)O)cc2)cc1Br` [AAA-023, 4-(3,5-Dibromo-4-ethoxybenzamido)benzoic acid] showed an RARβ activity ratio (RARβ) of 404 and an RARγ activity ratio (RARγ) of 62370.

`CCOc1c(Cl)cc(C(=O)Nc2ccc(C(=O)O)cc2)cc1OC` [AAA-024, 4-(3-Chloro-4-ethoxy-5-methoxybenzamido)benzoic acid] was tested, and the “RARα/RARβ ratio (*)” value (RARα) was 12.2, the RARα activity ratio (RARα) was 66 and the RARβ activity ratio (RARβ) was 805. The RARγ activity ratio (RARγ) was 27200.

`CCOc1c(Cl)cc(C(=O)Nc2ccc(C(=O)O)cc2)cc1C(F)(F)F` [AAA-025, 4-(3-Chloro-4-ethoxy-5-(trifluoromethyl)benzamido)benzoic acid] was tested, and the “increase in RARα activity” value (RARα; compared with XXX-01) was 65 fold, the “increase in RARα versus RARβ selectivity” value (RARα; compared with XXX-01) was 3 fold and the RARβ activity ratio (RARβ) was 131. The RARγ activity ratio (RARγ) was “inactive”.

For `CCOc1c(Cl)cc(C(=O)Nc2ccc(C(=O)O)nc2)cc1Cl` [AAA-026, 5-(3,5-Dichloro-4-ethoxybenzamido)picolinic acid], the “RARα/RARβ ratio (*)” value (RARα) was 27.3, the RARα activity ratio (RARα) was 180 and the RARβ activity ratio (RARβ) was 4920. The RARγ activity ratio (RARγ) was “inactive”.

`CCOc1c(Cl)cc(C(=O)Nc2ccc(C(=O)O)cn2)cc1Cl` [AAA-027, 6-(3,5-Dichloro-4-ethoxybenzamido)nicotinic acid] was tested, and the “RARα/RARβ ratio (*)” value (RARα) was greater than 5, the RARα activity ratio (RARα) was 260 and the RARβ activity ratio (RARβ) was “inactive”.

For `CCOc1cc(C(=O)Nc2ccc(C(=O)O)cc2)cc(OCC)c1OCC` [AAA-028, 4-(3,4,5-triethoxy-benzoylamino)-benzoic acid], the “RARα/RARβ ratio (*)” value (RARα) was 173.0, the RARα activity ratio (RARα) was 370 and the RARβ activity ratio (RARβ) was 64000. The RARγ activity ratio (RARγ) was “inactive”.

In the case of `COc1c(Cl)cc(C(=O)Nc2ccc(C(=O)O)c(F)c2)cc1C(F)(F)F` [AAA-066, 4-(3-Chloro-4-methoxy-5-(trifluoromethyl)benzamido)-2-fluorobenzoic acid], the “RARα/RARβ ratio (*)” value (RARα) was 236, the RARα activity ratio (RARα) was 32 and the RARβ activity ratio (RARβ) was 7558.

Compound `CCOc1ccc(C(=O)Nc2cc(F)c(C(=O)O)c(F)c2)cc1C(F)(F)F` [XXX-02, 4-(4-Ethoxy-3-(trifluoromethyl)benzamido)-2,6-difluorobenzoic acid, reference compound] has an RARα activity ratio (RARα) of 2242.
